The values below come from patent publication US10221147B2, “Heterocyclic compounds with working memory enhancing activity” (Red Bull GmbH, priority 2014, dated 2019).

As a reminder, the melting point is the temperature, or range, at which the solid turns liquid. One may read the EC50 as the concentration at which the effect is half-maximal.

The test system of data set [1] is Male Sprague Dawley rats. As to the kind of experiment: 12 arm radial arm maze (RAM), working memory errors. Format: in vivo, rat. As to conditions: versus DMSO-injected counterparts. From the text:
One such animal model is the radial arm maze using rats and is given in detail in Timofeva O. et al., Brain Res. 1308 (2010) 147-152: Wenk G. et al.; The Journal of Neuroscience (2004) 8.5A.1-8.5A.12; Akoto M. et al.; The Journal of Neuroscience (2000)20 (189: 7116-7121: Levin E D et al.; Behavioral Brain Res. 208 (2010) 319-327. Li-Bo Z. et al.; Neuropharmacology 37, 1998) 323-330. Roegge, C S. et al.; Toxicological Sciences 57, 121-30 (2000).
Male Sprague Dawley rats were used for the studies aged between 12-14 weeks. Twelve rats per group were used for this study. All rats were obtained from Core Unit of Biomedical Research, Division of Laboratory Animal Science and Genetics, Medical University of Vienna and maintained in cages made of makrolon and filled with autoclaved woodchips and water in bottles was available ad libitum. The room was illuminated with artificial light at an intensity of about 200 lx in 2 m from 5 am to 7 pm. Radial arm maze (RAM) training was performed between 8:00 h and 13:00 h. […]
Before starting the training, rats were given two habituation sessions in which food was placed all over the maze and rats were allowed to explore the maze and consume the food for 5 minutes. […] An arm was baited only once and a repeated entry into a baited arm was counted as a working memory error, whereas any entry into an un-baited arm was recorded as a reference memory error. […]

Data set [2] addresses T1, dopamine transporter (DAT) (Homo sapiens, UniProt Q01959).
T1 construct: expressed in transfected cells; host or cells: HEK293 (HEK-DAT)
As to the kind of experiment: Substrate uptake inhibition in HEK-DAT cells. Format: cell-based. As to conditions: for inhibition of DAT and selectivity against SERT and NET: verbal summary of EC50 values. As for the experimental part: (§1) The human isoforms of DAT, SERT and NET were expressed in HEK293 (HEK-DAT, HEK-SERT and HEK-NET) cells. DAT inhibitors-mediated monoamine transporter effects on substrate uptake were analyzed according to procedure described by Sitte et al. In brief, cells were grown in poly-d-lysine coated 96-well plates, incubated with compounds diluted in Krebs-Ringer-HEPES buffer, substrates were subsequently added, cells were lysed with 1% SDS (sodium dodecyl sulphate) and released radioactivity was measure by a liquid scintillation counter (23).
(§2) EC50-values for the dopamine transporter (DAT), the norepinephrine transporter (NET) and the serotonin transporter (SERT) were obtained: […]

Data set [3] deals with T2, serotonin transporter (SERT) (Homo sapiens, UniProt P31645).
T2 construct: expressed in transfected cells; host or cells: HEK293 (HEK-SERT)
As to the kind of experiment: Substrate uptake inhibition in HEK-SERT cells. Type of data set: cell-based. As to conditions: human SERT expressed in HEK293, substrate uptake. As for the experimental part:
as §1, §2

The target in data set [4] is T3, norepinephrine transporter (NET) (Homo sapiens, UniProt P23975).
T3 construct: expressed in transfected cells; host or cells: HEK293 (HEK-NET)
As to the kind of experiment: Substrate uptake inhibition in HEK-NET cells. Type of data set: cell-based. As to conditions: human NET expressed in HEK293, substrate uptake. As for the experimental part:
as §1, §2

T1 sequence (Q01959 whole entry): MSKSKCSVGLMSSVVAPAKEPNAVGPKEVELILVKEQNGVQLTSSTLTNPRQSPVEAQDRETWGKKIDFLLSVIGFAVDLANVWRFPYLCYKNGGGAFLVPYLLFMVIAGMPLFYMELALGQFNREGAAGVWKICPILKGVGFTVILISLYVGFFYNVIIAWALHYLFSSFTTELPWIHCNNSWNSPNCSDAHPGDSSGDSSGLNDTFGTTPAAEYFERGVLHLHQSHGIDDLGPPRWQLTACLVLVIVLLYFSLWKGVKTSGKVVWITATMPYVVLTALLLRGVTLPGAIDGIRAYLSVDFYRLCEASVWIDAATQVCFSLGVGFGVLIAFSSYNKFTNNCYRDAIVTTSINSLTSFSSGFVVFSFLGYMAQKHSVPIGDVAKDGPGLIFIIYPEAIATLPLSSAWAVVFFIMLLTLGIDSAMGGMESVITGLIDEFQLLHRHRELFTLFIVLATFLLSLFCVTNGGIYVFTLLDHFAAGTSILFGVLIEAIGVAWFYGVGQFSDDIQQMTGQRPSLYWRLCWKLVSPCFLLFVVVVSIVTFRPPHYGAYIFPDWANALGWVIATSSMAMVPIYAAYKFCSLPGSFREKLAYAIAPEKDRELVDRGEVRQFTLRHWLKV
T3 sequence (P23975 whole entry): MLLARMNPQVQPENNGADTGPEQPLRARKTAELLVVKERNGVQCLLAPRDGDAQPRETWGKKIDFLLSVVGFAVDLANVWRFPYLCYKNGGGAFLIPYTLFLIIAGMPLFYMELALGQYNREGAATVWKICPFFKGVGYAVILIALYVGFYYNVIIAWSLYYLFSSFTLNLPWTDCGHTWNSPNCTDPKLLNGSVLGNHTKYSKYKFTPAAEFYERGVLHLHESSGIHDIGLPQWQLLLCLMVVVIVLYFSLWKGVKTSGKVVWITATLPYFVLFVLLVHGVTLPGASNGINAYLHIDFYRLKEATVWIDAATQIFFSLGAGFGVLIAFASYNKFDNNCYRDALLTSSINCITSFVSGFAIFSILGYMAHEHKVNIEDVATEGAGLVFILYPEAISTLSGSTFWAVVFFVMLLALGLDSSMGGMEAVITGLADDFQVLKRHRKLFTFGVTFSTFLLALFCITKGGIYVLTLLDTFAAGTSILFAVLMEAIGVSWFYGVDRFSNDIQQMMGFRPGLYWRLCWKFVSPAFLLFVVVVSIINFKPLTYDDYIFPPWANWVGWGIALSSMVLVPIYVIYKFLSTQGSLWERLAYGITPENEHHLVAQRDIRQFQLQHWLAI
T2 sequence (P31645 whole entry): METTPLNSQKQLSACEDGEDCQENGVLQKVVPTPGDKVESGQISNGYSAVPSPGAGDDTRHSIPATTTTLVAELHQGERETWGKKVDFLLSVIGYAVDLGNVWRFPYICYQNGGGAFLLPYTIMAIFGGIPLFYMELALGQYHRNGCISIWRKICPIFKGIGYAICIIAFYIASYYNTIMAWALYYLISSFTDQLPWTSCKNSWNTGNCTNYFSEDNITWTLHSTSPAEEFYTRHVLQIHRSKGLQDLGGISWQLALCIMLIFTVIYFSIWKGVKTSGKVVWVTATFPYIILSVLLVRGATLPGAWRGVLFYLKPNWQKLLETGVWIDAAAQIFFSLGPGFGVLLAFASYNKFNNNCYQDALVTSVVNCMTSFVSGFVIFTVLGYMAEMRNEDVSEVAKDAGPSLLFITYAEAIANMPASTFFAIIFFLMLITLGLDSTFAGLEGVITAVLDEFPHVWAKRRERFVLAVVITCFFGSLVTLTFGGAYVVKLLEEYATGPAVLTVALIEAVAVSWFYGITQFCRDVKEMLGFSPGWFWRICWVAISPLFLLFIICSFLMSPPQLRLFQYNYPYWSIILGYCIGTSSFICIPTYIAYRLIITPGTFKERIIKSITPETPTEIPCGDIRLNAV

For the compound `[O-][S+](Cc1nccs1)C(c1ccccc1)c1ccccc1` (stereo not drawn) [C1, 2-(diphenylmethanesulfinylmethyl}-1,3-thiazole], the melting point lay in the range of 119 to 122 °C. The “performance in RAM training from day eight (working memory errors)” value in data set [1] (day eight to ten, p<0.05) is reported as “performed better”. In addition, in data set [1] (up to day seven), the “performance in RAM training up to day seven” value was “comparable level”.
Take `[O-][S+](Cc1csc(C2CC2)n1)C(c1ccccc1)c1ccccc1` (stereo not drawn) [4-(diphenylmethanesulfinylmethyl)-2-cyclopropyl-1,3-thiazole]: the values for the EC50 in data set [2], in data set [3] and in data set [4] were 4.1 µM, 436 µM and 774 µM, respectively. Also, the “inhibition of DAT and selectivity against SERT and NET” value in data set [2] is “excellent inhibition and selectivity against SERT and NET”.
Regarding `Cc1csc(C[S+]([O-])C(c2ccccc2)c2ccccc2)n1` (stereo not drawn), the melting point is 104 to 107 °C.
On to `[O-][S+](Cc1cscn1)C(c1ccccc1)c1ccccc1` (stereo not drawn) [4-(diphenylmethanesulfinylmethyl)-1,3-thiazole], for which the EC50 was 7.3 µM in data set [2], 456 µM in data set [3] and 547 µM in data set [4]. Further, in data set [2], the “inhibition of DAT and selectivity against SERT and NET” value is “excellent inhibition and selectivity against SERT and NET”.
